# Laboratory results reported in patent US20240344241A1, “PROTEINACEOUS MOLECULES AND USES THEREFOR” (THE UNIVERSITY OF QUEENSLAND, priority 2021, published 2024).
# pIC50, pKi: −log10 of the molar value. Bridge positions count the residues as written; N and C are the ends. Peptide text beside a SMILES is read from it.
# What was measured:
# bovine trypsin = target: T1, bovine trypsin (Bos taurus, UniProt P00760); assay: Surface plasmon resonance binding to trypsin
# T1 sequence (P00760 24-246): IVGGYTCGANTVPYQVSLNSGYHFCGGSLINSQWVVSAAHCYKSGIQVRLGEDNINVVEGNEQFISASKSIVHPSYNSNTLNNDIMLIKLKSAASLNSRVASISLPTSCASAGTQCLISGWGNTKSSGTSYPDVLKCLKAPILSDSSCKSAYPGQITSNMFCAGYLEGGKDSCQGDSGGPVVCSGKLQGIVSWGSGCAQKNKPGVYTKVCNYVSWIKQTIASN
# Human trypsin = target: T2, Human trypsin (Homo sapiens, UniProt P07477); assay: Trypsin competitive inhibition assay; format: biochemical; conditions: Table 10; read-out: Ki Trypsin
# T2 construct: purchased Sigma-Aldrich; host or cells: purified from human tissue
# How it was run: (§1)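 Serially diluted inhibitors equilibrated at room temperature with 10 nM β-FXIIa in 0.1 M Tris-HCl pH 8.0, 0.1 M NaCl, 10 mM CaCl2, 0.005% Triton X-100; 100 μM Ac-QRFR-pNA (KM=162 μM), A405 over 7 min. Off-target proteases used differing enzyme/substrate levels, some with fluorogenic MCA substrates (ex 360/em 460 nm, 5-30 min). Morrison Ki by non-linear regression.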
# Human FXa = target: T3, Human FXa (Homo sapiens, UniProt P00742); assay: FXa inhibition assay; format: biochemical
# T3 construct: Human β-FXIIa was obtained from Molecular Innovations, together with human FXa, human FXIa, human α-thrombin, and human plasma kallikrein; purchased Molecular Innovations; host or cells: purified from human plasma
# T3 sequence (P00742 235-488 limits assumed): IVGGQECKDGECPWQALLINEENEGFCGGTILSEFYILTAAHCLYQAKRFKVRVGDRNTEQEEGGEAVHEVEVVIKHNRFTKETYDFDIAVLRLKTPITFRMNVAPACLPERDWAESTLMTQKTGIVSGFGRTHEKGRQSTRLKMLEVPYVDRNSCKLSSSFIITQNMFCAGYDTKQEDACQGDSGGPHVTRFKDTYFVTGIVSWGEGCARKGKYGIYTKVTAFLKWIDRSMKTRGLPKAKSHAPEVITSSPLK
# T3 sequence (P00742 41-179 partner limits assumed): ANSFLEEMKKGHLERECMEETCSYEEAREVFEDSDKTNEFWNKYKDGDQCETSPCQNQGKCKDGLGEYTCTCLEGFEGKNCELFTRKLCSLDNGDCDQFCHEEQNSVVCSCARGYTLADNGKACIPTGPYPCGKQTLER
# Method: (§2) The activity of acyclic and cyclic MCoFx1-5 and analogues thereof was assessed in competitive inhibition assays, as previously described in Swedberg et al. (2016) J Med Chem, 59: 7287-7292. Human β-FXIIa was obtained from Molecular Innovations, together with human FXa, human FXIa, human α-thrombin, and human plasma kallikrein. Human cationic trypsin and human plasmin were obtained from Sigma-Aldrich, and recombinant human matriptase was sourced from R&D Systems. Recombinant human urokinase (uPA) and recombinant human tissue plasminogen activator (tPA) were expressed in Expi293 cells, as previously described in Li et al. (2019) Chembiochem, 20: 46-50. FXIIa inhibition assays were performed in clear, low-binding 96-well plates using 250 μL (final volume) of assay buffer (0.1 M Tris-HCl pH 8.0, 0.1 M NaCl, 10 mM CaCl2 and 0.005% Triton X-100). Inhibitors were serially diluted and incubated with 10 nM FXIIa at room temperature to reach equilibrium. After adding 100 μM Ac-QRFR-pNA substrate (KM=162 μM), enzymatic activity was measured by monitoring release of the pNA moiety using a TECAN infinite M1000 Pro plate reader (A=405 nm, reading interval, 10 s; assay time course, 7 min). Assays were conducted in three times in duplicate. Substrate kinetic constants (Michaelis-Menten) and inhibition constants (Morrison K) were determined by non-linear regression using Prism 7 (GraphPad). Selectivity assays with off-target proteases were performed in a similar way, except that different concentrations of enzyme and substrate were used, as indicated in Table 16. For assays using a fluorescent substrate (peptide-4-methylcoumaryl-7-amide, MCA), black low-binding 96-well plates were used and activity was measured using a TECAN infinite M1000 pro plate reader (λex 360 nm, λem 460 nm, reading interval, 30 s; assay time course, 5-30 min).
# Human FXIa = target: T4, Human FXIa (Homo sapiens, UniProt P03951); assay: FXIa inhibition assay; format: biochemical
# T4 construct: Human β-FXIIa was obtained from Molecular Innovations, together with human FXa, human FXIa, human α-thrombin, and human plasma kallikrein; purchased Molecular Innovations; host or cells: purified from human plasma
# T4 sequence (P03951 388-625 limits assumed): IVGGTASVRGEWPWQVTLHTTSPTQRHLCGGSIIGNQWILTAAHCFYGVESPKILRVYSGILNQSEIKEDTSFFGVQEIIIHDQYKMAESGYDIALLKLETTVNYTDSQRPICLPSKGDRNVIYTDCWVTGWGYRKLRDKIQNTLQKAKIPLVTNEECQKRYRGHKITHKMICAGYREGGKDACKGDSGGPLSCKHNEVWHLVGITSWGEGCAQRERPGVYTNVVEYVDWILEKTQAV
# T4 sequence (P03951 19-387 partner limits assumed): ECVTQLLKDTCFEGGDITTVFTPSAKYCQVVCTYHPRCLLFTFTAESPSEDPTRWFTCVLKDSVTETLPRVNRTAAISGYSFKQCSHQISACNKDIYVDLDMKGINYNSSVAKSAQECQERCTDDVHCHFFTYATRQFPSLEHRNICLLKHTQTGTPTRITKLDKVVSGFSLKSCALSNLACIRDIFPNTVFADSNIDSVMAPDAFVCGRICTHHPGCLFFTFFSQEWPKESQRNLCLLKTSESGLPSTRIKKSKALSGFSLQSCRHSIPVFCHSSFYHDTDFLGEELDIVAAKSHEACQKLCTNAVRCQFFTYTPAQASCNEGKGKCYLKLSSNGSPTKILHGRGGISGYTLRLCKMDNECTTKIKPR
# Method: as §2
# Human plasma kallikrein = target: T5, Human plasma kallikrein (Homo sapiens, UniProt P03952); assay: Plasma kallikrein inhibition assay; format: biochemical
# T5 construct: Human β-FXIIa was obtained from Molecular Innovations, together with human FXa, human FXIa, human α-thrombin, and human plasma kallikrein; purchased Molecular Innovations; host or cells: purified from human plasma
# T5 sequence (P03952 391-638 limits assumed): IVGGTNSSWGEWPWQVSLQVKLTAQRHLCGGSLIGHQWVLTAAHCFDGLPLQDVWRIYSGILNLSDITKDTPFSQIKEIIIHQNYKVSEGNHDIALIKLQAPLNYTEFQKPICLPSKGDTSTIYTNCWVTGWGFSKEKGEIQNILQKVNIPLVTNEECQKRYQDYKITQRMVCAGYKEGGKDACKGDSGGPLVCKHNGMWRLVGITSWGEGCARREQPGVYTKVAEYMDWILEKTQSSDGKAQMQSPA
# T5 sequence (P03952 20-390 partner limits assumed): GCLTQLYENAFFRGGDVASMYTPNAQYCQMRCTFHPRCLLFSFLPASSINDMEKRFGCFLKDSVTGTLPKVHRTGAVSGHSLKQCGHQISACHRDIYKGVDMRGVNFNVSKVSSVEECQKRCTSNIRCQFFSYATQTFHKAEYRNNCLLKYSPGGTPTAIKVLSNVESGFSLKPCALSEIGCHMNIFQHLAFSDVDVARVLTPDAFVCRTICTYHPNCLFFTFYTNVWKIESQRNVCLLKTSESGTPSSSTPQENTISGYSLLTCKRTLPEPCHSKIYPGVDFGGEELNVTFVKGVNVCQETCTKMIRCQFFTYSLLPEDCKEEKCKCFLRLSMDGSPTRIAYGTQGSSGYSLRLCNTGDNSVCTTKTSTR
# Method: as §2
# Human plasmin = target: T6, Human plasmin (Homo sapiens, UniProt P00747); assay: Plasmin inhibition assay; format: biochemical
# T6 construct: Human cationic trypsin and human plasmin were obtained from Sigma-Aldrich, and recombinant human matriptase was sourced from R&D Systems; purchased Sigma-Aldrich; host or cells: purified from human plasma
# T6 sequence (P00747 581-810 limits assumed): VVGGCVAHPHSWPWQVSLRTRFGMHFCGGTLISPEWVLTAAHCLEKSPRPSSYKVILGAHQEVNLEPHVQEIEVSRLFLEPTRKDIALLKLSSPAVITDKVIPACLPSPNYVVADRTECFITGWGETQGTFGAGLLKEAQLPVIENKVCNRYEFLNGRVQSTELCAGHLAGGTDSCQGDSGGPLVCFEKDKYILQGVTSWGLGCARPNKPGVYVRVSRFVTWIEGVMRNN
# T6 sequence (P00747 97-580 partner limits assumed): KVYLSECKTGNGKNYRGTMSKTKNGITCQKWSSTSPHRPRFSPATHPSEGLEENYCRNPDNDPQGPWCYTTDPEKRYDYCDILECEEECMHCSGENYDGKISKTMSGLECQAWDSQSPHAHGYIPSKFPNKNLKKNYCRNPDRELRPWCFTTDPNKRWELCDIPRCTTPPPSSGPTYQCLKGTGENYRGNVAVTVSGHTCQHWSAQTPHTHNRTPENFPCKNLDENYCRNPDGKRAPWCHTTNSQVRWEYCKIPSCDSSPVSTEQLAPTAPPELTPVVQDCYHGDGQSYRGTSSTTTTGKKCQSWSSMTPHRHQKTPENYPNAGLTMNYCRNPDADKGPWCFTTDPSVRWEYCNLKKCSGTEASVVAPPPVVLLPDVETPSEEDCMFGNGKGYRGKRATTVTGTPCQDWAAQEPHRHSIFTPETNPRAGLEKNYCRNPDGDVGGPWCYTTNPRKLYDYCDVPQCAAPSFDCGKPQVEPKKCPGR
# Method: as §2
# Rec. human uPA = target: T7, Rec. human uPA (Homo sapiens, UniProt P00749); assay: uPA inhibition assay; format: biochemical
# T7 construct: made in house; host or cells: Expi293 cells
# Method: as §2
# Rec. human matriptase = target: T8, Rec. human matriptase (Homo sapiens, UniProt Q9Y5Y6); assay: Matriptase inhibition assay; format: biochemical; conditions: Table 10; read-out: Ki Matriptase
# T8 construct: purchased R&D Systems
# T8 sequence (Q9Y5Y6 615-855 limits assumed): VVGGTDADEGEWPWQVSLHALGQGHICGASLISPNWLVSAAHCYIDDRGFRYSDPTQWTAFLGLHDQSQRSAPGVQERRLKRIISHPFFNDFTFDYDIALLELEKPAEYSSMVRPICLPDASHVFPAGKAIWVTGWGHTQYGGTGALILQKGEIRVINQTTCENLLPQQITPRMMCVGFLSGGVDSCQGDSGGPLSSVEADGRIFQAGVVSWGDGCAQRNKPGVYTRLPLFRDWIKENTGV
# How it was run: as §1
# [1] = test system: clotting via the extrinsic pathway; assay: Prothrombin time (PT) assay in human plasma; format: biochemical; conditions: at 10 μM
# From the text: Citrated, platelet-poor plasma samples from healthy adults were collected, prepared, and stored using previously established collection protocols, such as in Zdenek et al. (2019) Toxicol in Vitro, 58: 97-109.
# Standard coagulation assays were used to determine the effect of the inhibitors on the clotting time of human plasma. Activated partial thromboplastin time (aPTT) uses a Kaolin reagent (clay) to activate the intrinsic/contact pathway of the coagulation cascade, whereas prothrombin time (PT) uses Neoplastine (lyophilized thromboplastin prepared from rabbit cerebral tissue) to activate the extrinsic/tissue-factor pathway of the coagulation cascade. A minor adjustment was made to both tests (addition of 25 μL inhibitor or buffer; refer to Table 17) to accommodate the addition of an inhibitor without changing the total volume (and therefore relative ratios of additives) of the assay. Concentrations of inhibitor are reported as the concentration at the point of incubation in the assay, i.e. not taking into account the addition of the start reagent (calcium for aPTT, or Neoplastine for PT).
# Clotting time (seconds) of plasma was automatically measured using a STA-R Max® analyzer (Stago, Asnieres sur Seine, France). Measurements were conducted using a viscosity-based (mechanical) detection system, whereby opposing magnets oscillate a small metal spherical pellet inside the test cuvette (250 μL total volume) until a clot is formed. Dilution of the inhibitor in Owren-Koller (OK) buffer for dose-response curves was performed automatically by the machine. Reagents were kept at 15-19° C. in the machine during experimentation and otherwise stored at 4° C. All tests were performed in triplicate.
# [2] = test system: human umbilical vein endothelial cells (HUVECs)
# Method: HUVECs were cultured in complete EGM™-2 medium until 80% confluence under 5% CO2 at 37° C. before being seeded onto a 96-well microplate at 5,000 cells/well. Cells were grown for 24 h prior to the assay. […] Peptides were diluted tenfold with serum-free EGM™-2 medium and incubated with HUVECs in triplicate. After 24 h incubation, peptide solutions were replaced with fresh complete EGM™-2 medium before the addition of 0.05% resazurin solution (Sigma-Aldrich). Cells were incubated for another 8 h and the absorbance of the plate was measured on a microplate reader at 540 and 620 nm. H2O and 1% Triton-X were used as control for 100 and 0% viability, separately.
compound,measurement,setting,value
"CC[C@H](C)[C@@H]1NC(=O)CNC(=O)CNC(=O)[C@H](CC(=O)O)NC(=O)[C@H](Cc2ccc(O)cc2)NC(=O)CNC(=O)[C@H](CO)NC(=O)CNC(=O)[C@@H]2CSSC[C@@H]3NC(=O)[C@H](CC(=O)O)NC(=O)[C@H](CO)NC(=O)[C@H](CC(=O)O)NC(=O)[C@H](CCCNC(=N)N)NC(=O)[C@H](CCCNC(=N)N)NC(=O)[C@@H]4CSSC[C@H](NC(=O)[C@H]([C@@H](C)CC)NC(=O)[C@H](CSSC[C@H](NC1=O)C(=O)N1CCC[C@H]1C(=O)N[C@@H](CCCNC(=N)N)C(=O)N[C@@H]([C@@H](C)CC)C(=O)NCC(=O)N[C@@H](CCCNC(=N)N)C(=O)N[C@@H](CC(C)C)C(=O)N4)NC(=O)[C@H](C)NC(=O)CNC(=O)[C@@H]1CCCN1C3=O)C(=O)N[C@@H](CCCNC(=N)N)C(=O)N[C@@H](C)C(=O)N[C@@H]([C@@H](C)O)C(=O)N[C@@H](CCCNC(=N)N)C(=O)N[C@@H](Cc1ccccc1)C(=O)N2 [MCoFx1 cyclic] (cyclo(ACICRATRFCGSGYDGGICPRIGRLCRRDSDCPG); disulfide 2-19, 4-26, 10-32)",Kd,"bovine trypsin; Table 8, cyclic form, read-out: KD (nM) Trypsin Cyclic",31.5 nM
same,fold lower affinity for trypsin compared with MCoTI-II,bovine trypsin; ratio of KD values,300 fold
same,pKi,Human trypsin,5.95
same,inhibition at 5 µM,"Human FXa; at 5 μM, read-out: percent inhibition FXa",0%
same,pIC50,Human FXa; read-out: IC50 FXa,< 5.30
same,inhibition at 5 µM,"Human FXIa; at 5 μM, read-out: percent inhibition FXIa",0%
same,pIC50,Human FXIa; read-out: IC50 FXIa,< 5.30
same,inhibition at 5 µM,"Human plasma kallikrein; at 5 μM, read-out: percent inhibition Plasma kallikrein",0%
same,pIC50,Human plasma kallikrein; read-out: IC50 Plasma kallikrein,< 5.30
same,inhibition at 5 µM,"Human plasmin; at 5 μM, read-out: percent inhibition Plasmin",13%
same,pIC50,Human plasmin; read-out: IC50 Plasmin,< 5.30
same,inhibition at 5 µM,"Rec. human uPA; at 5 μM, read-out: percent inhibition uPA",0%
same,pIC50,Rec. human uPA; read-out: IC50 uPA,< 5.30
same,pKi,Rec. human matriptase,5.04
same,"clotting time compared to control, PT assay",[1],No significant differences in clotting time compared to control assays
same,cytotoxicity to HUVECs,[2],not toxic
